Data reported in PMC6576746, “Rational discovery of dual-indication multi-target PDE/Kinase inhibitor for precision anti-cancer therapy using structural systems pharmacology” (PLoS Computational Biology, 2019).
pEC50, pIC50: −log10 of the molar value.

Experiments:
Experiment in all cases: cells
Set-up in all cases: species or system panel of human cancer cell lines; Eurofins OncoPanel proliferation; nuclei count by high-content fluorescence imaging, 10-point dose response
A431 = conditions: Homo sapiens, A-431, 72 h, cell count, 3 days
In short: (§1)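 Ten half-log concentrations from 100 μM (0.1% DMSO max) applied one day post-seeding, 3-day exposure at 37°C; untreated time-zero plate for GI50. Readout is nuclear cell count by automated fluorescence imaging, giving EC50, IC50, GI50 and 0–10 activity area.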

Colo 201 = conditions: Homo sapiens, COLO 201, 72 h, cell count, 3 days
In short: as §1

Hs 888.Sk = conditions: 72 h, cell count, 3 days
In short: as §1

K562 = conditions: Homo sapiens, K562, 72 h, cell count, 3 days
In short: as §1

MT-3 = conditions: MT-3, 72 h, cell count, 3 days
In short: as §1

Mia PaCa-2 = conditions: Homo sapiens, MIA PaCa-2, 72 h, cell count, 3 days
In short: as §1

RL95-2 = conditions: Homo sapiens, RL95-2, 72 h, cell count, 3 days
In short: as §1

SCaBER = conditions: Homo sapiens, SCaBER, 72 h, cell count, 3 days
In short: as §1

SNU-C2B = conditions: Homo sapiens, SNU-C2B, 72 h, cell count, 3 days
In short: as §1

SW403 = conditions: Homo sapiens, SW-403, 72 h, cell count, 3 days
In short: as §1

SW579 = conditions: SW579, 72 h, cell count, 3 days
In short: as §1

SaOS2 = conditions: Homo sapiens, SAOS-2, 72 h, cell count, 3 days
In short: as §1

TF-1 = conditions: Homo sapiens, TF-1, 72 h, cell count, 3 days
In short: as §1

TUR = conditions: 72 h, cell count, 3 days
In short: as §1

[1] = 50% of maximum possible response

pIC50 (A431; [1]): 4.35
GI50 (A431; corrected for time zero): 42.8 µM
pEC50 (A431; curve inflection point): 4.35
pIC50 (Colo 201; [1]): 4.17
GI50 (Colo 201; corrected for time zero): 53.8 µM
pEC50 (Colo 201; curve inflection point): 4.17
pIC50 (K562; [1]): 4.35
GI50 (K562; corrected for time zero): 38.5 µM
pEC50 (K562; curve inflection point): 4.35
pIC50 (Mia PaCa-2; [1]): 4.96
GI50 (Mia PaCa-2; corrected for time zero): 9.38 µM
pEC50 (Mia PaCa-2; curve inflection point): 5.00
pIC50 (SNU-C2B; [1]): 4.26
GI50 (SNU-C2B; corrected for time zero): 31.1 µM
pEC50 (SNU-C2B; curve inflection point): 4.34
pIC50 (SW403; [1]): 4.48
GI50 (SW403; corrected for time zero): 14.4 µM
pEC50 (SW403; curve inflection point): 4.54
pIC50 (SW579; [1]): 4.05
GI50 (SW579; corrected for time zero): 67.9 µM
pEC50 (SW579; curve inflection point): 4.05
Compound: C[C@@H]1CC(=O)NN=C1c1ccc(NN=C(C#N)C#N)cc1 [levosimendan]
pIC50 (Hs 888.Sk; [1]): < 4.00
GI50 (Hs 888.Sk; corrected for time zero): 47.6 µM
pEC50 (Hs 888.Sk; curve inflection point): < 4.00
pIC50 (MT-3; [1]): < 4.00
GI50 (MT-3; corrected for time zero): > 100 µM
pEC50 (MT-3; curve inflection point): < 4.00
pIC50 (RL95-2; [1]): 4.68
GI50 (RL95-2; corrected for time zero): 10.4 µM
pEC50 (RL95-2; curve inflection point): 4.72
pIC50 (SCaBER; [1]): 4.22
GI50 (SCaBER; corrected for time zero): 56.5 µM
pEC50 (SCaBER; curve inflection point): 4.22
pIC50 (SaOS2; [1]): 4.26
GI50 (SaOS2; corrected for time zero): 35.7 µM
pEC50 (SaOS2; curve inflection point): 4.26
pIC50 (TF-1; [1]): 4.38
GI50 (TF-1; corrected for time zero): 19.7 µM
pEC50 (TF-1; curve inflection point): 4.38
pIC50 (TUR; [1]): 5.17
GI50 (TUR; corrected for time zero): 5.98 µM
pEC50 (TUR; curve inflection point): 5.19
